In ChEMBL document CHEMBL1777672, “Synthesis and antifungal activities of natural and synthetic biflavonoids” (2011) one finds Activity and MIC data, which are given here for 3 compounds.

Assay [1] has as its system Cryptococcus neoformans. Put plainly: Antifungal activity against Cryptococcus neoformans ATCC 14116 after 72 hrs by agar diffusion bioautography method. The format is functional, organism-based. Background: Agar diffusion results depend on both activity and mobility in agar.
The nature of assay [2]: Antifungal activity against Rhizopus stolonifer (+) ATCC 6227b after 48 hrs by agar diffusion bioautography method. It is filed as functional.
Assay [3] deals with Candida albicans. Put plainly: Antifungal activity against Candida albicans ATCC 90028 after 48 hrs by agar diffusion bioautography method. It is filed as functional, organism-based.
In assay [4] the test system is Fusarium solani. Put plainly: Antifungal activity against Fusarium solani ATCC 36031 after 48 hrs by agar diffusion bioautography method. The format is functional, organism-based.
Assay [5] concerns Aspergillus oryzae. Put plainly: Antifungal activity against Aspergillus oryzae ATCC 10124 after 48 hrs by agar diffusion bioautography method. It is filed as functional, organism-based.
Assay [6] deals with Candida parapsilosis. Put plainly: Antifungal activity against Candida parapsilosis ATCC 22019 after 48 hrs by broth microdilution technique. The format is functional. As to conditions: Lodderomyces parapsilosis, ATCC 22019, 48 h.
Assay [7] has as its system Aspergillus niger. Put plainly: Antifungal activity against Aspergillus niger ATCC 16404 after 48 hrs by agar diffusion bioautography method. The format is functional, organism-based.
In assay [8] the test system is Candida parapsilosis. Put plainly: Antifungal activity against Candida parapsilosis ATCC 22019 after 48 hrs by agar diffusion bioautography method. The format is functional, organism-based.
The nature of assay [9]: Antifungal activity against Rhizopus stolonifer (+) ATCC 6227b after 48 hrs by broth microdilution technique. It is filed as functional. On the technique in general: Broth dilution looks for growth in wells or tubes with falling amounts of substance.
The subject of assay [10] is Cryptococcus neoformans. Put plainly: Antifungal activity against Cryptococcus neoformans ATCC 14116 after 72 hrs by broth microdilution technique. The format is functional. As to conditions: ATCC 14116, 72 h.
Assay [11] has as its system Aspergillus niger. Put plainly: Antifungal activity against Aspergillus niger ATCC 16404 after 48 hrs by broth microdilution technique. The following applies: ATCC 16404, 48 h. The format is functional.

Converted amounts (≈) assume the structure as drawn. The source made the active and inactive calls. The calls are words filed in the database; no cut-off is given here.

In the case of `O=c1cc(-c2ccc(O)cc2)oc2ccc(-c3ccc4oc(-c5ccc(O)cc5)cc(=O)c4c3)cc12`, the outcome in [1], in assay [2], in assay [3], in assay [4], in assay [5] and in assay [7] was inactive. For the same compound, the MIC in assay [6] was found to be 400 µM (≈ 190 µg/mL). In addition, the outcome in [8] was Active.

As for `O=c1c(-c2c(-c3ccccc3)oc3ccccc3c2=O)c(-c2ccccc2)oc2ccccc12`, the MIC is over 800 µM in [9], over 800 µM in assay [10] and 400 µM (≈ 177 µg/mL) in [6]. Further, the outcome in assay [1], in assay [2] and in [8] was Active. Besides, the outcome in assay [3], in assay [4], in [5] and in assay [7] was inactive.

For `O=c1cc(-c2ccccc2)oc2ccccc12` [FLAVONE], the MIC in assay [9] amounted to 100 µM (≈ 22.2 µg/mL); in assay [10] it was 100 µM (≈ 22.2 µg/mL); in assay [11], 800 µM (≈ 178 µg/mL); in assay [6], 200 µM (≈ 44.4 µg/mL).

A word on the MIC: it is the lowest concentration that inhibits growth of the organism.
